Test results published in PMC3163471 (MedChemComm, 2011).

What follows are substances tested on breast cancer cell lines (assay: Antiproliferative activity, cell line not given). Settings: text on structure-activity relationship, Tables 1 and 2.
Assay type: cell-based, human
With “H-Arg-[3-amino-3(1-napthyl)-propionic acid]-Asp-OH [Compound 7]” the “Antiproliferative activity in words, compared with compound 5 or the parent” value was “loss of activity”.
For “H-Arg-[3-amino-3(1-napthyl)-propionic acid]-Tyr-OH [Compound 6]”, the “Antiproliferative activity in words, compared with compound 5 or the parent” value was “loss of activity”.
In the case of “H-Arg-Pro-[3-amino-3(1-napthyl)-propionic acid]-Tyr-OH [Compound 13]”, the “Antiproliferative activity in words, compared with compound 5 or the parent” value is reported as “activity was lost”.
In the case of “H-Lys-[3-amino-3(biphenyl)-propionic acid]-Phe-OH [Compound 11]”, the “Antiproliferative activity in words, compared with compound 5 or the parent” value is reported as “loss of activity”.
“H-Arg-[3-amino-3(biphenyl)-propionic acid]-Phe-OH [Compound 10]” was tested, and the “Antiproliferative activity in words, compared with compound 5 or the parent” value was “retained the activity and specificity”.
